Active and inactive are the calls of the source.
Assays:
[1] = Shn3 3'UTR reporter inhibitors, dose response, cell-based, Clone20 osteoblasts, firefly luciferase, cherry-picked (AID 624132); assay type: functional;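 note: firefly luciferase luminescence from reporter carrying the Shn3 3'UTR in osteoblasts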
[2] = HepG2 cell cytotoxicity, dose response, cytotoxicity control for Shn3 inhibitor project, CellTiter-Glo, cherry-picked (AID 624134); assay type: functional, cell-based
[3] = control 3'UTR Renilla luciferase suppression, dose response, counter-screen for Shn3 inhibitor project, cell-based, Clone20-Shn3RL, cherry-picked (AID 624133); assay type: functional
[4] = reduction of Shn3 3'UTR firefly luciferase signal, dose response, Schnurri-3 inhibitor project, cell-based, Clone20 osteoblasts, cherry-pick, set 2 (AID 720490); assay type: functional;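 note: actives lower the luminescence signal as inhibitors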
[5] = M. tuberculosis H37Rv growth inhibitors, H37Rv strain (AID 1626); assay type: functional
[6] = cytotoxicity in A549 cells, dose response, cytotoxicity control, cell-based, CellTiter-Glo luminescence, cherry-pick (AID 743484); assay type: functional
[7] = cytotoxicity in HepG2 cells, dose response, cytotoxicity control, cell-based, CellTiter-Glo luminescence, cherry-pick, set 4 (AID 743480); assay type: functional
[8] = Luminescence-based cell-based high throughput dose response assay to identify activators of the DAF-12 from the parasite S. stercoralis (ssDAF-12).; assay type: functional
[9] = target: T1, Oxysterols receptor LXR-beta (Homo sapiens, UniProt P55055); assay: LXR agonists, Gal4 luciferase reporter, dose response, counter-screen for ssDAF-12 agonist project, cell-based, luminescence, HEK293, S. stercoralis campaign (AID 720737); assay type: functional; details: read-out: IC50 (the source's name)
T1 sequence (P55055 whole entry): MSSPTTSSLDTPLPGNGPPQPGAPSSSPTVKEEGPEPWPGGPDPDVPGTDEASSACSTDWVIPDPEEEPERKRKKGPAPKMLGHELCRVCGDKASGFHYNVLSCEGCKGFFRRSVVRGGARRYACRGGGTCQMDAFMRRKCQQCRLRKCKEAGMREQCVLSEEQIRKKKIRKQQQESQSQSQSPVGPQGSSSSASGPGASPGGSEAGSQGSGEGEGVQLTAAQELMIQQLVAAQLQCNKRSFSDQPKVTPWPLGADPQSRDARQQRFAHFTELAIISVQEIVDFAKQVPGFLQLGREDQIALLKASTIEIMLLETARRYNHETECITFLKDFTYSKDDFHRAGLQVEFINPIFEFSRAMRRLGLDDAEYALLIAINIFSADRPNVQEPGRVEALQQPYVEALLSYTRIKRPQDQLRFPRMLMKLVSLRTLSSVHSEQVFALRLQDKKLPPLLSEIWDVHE

[10] = target: T1, Oxysterols receptor LXR-beta; assay type: functional, cell-based
cells [11] = assay: cells
[12] = THP-1 cell cytotoxicity, dose response, cytotoxicity control for Vif-APOBEC3G degradation inhibitor project, THP-1 cells (AID 1117359); assay type: functional; details: Human immunodeficiency virus 1, THP-1
Transthyretin = Transthyretin (Homo sapiens, UniProt P02766); assay: Luminescence-based cell-based high throughput dose response assay to identify activators of Transthyretin (TTR) transcription.; assay type: functional
[13] = HepG2 cell cytotoxicity, dose response, cytotoxicity control, ATP luminescence, cherry-pick, activator set 2 (AID 1053143); assay type: functional, cell-based
cells [14] = assay: cells; remark: listed apart in the source
cells [15] = details: HEK293;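 note: cells exposed to compound for 48 hours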
NADPH oxidase 1 = target: T2, NADPH oxidase 1 (Homo sapiens, UniProt Q9Y5S8); assay: Late-stage luminescence-based cell-based dose response assay to identify inhibitors of NADPH oxidase 1 (NOX1): Synthesized analogs.; assay type: functional
T2 sequence (Q9Y5S8 whole entry): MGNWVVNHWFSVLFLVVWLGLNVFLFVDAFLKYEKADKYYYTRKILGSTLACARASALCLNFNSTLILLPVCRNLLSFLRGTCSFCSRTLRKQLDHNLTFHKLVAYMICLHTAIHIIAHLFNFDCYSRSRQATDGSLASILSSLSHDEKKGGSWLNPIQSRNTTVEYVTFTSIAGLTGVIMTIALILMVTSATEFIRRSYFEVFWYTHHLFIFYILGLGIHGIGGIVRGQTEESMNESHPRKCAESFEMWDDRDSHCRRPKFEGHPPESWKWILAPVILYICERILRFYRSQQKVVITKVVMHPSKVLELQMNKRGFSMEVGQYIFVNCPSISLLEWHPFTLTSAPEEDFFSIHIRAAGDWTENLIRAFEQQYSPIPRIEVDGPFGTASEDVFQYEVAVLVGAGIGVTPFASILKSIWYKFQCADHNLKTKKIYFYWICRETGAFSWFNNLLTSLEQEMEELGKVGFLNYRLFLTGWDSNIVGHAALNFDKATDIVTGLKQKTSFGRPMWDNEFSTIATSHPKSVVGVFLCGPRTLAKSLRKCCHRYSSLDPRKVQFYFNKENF

Heat shock protein HSP90 = Heat shock protein HSP90 (Homo sapiens, UniProt P07900+P08238); assay: tumor Hsp90 inhibitor potency, dose response (AID 712); assay type: functional
[16] = target: E3 ubiquitin-protein ligase Mdm2 (Homo sapiens, UniProt Q00987); assay: enhancers of MDM2-luciferase reporter signal, concentration-effect titration, project on inhibitors of MDM2 ubiquitin ligase, cellular assay, luminescent readout, 384-well plate format (AID 1394); assay type: functional;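 note: MDM2 E3 inhibitors raise luminescence so EC50 is for signal enhancement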
Vero = assay: cells; assay type: functional; details: Chlorocebus sabaeus
[17] = target: NAD-dependent protein deacylase sirtuin-5, mitochondrial (Homo sapiens, UniProt Q9NXA8); assay: SIRT5 desuccinylase inhibitors, dose response, biochemical, fluorescence imaging, cherry-pick, set 5 (AID 720591);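 note: desuccinylation of succinyl peptide AMC substrate read as fluorescence after trypsin release; potency of inhibitors that lower fluorescence and may act on trypsin instead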
Cryptococcus neoformans = assay: PubChem AID 686997; assay type: functional, organism-based
HEK293 = assay: HEK293T cell cytotoxicity, dose response, cytotoxicity control, ATP luminescence, cherry-pick samples (AID 687005); assay type: functional, cell-based; details: Homo sapiens;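 note: cells exposed to compound for 48 hours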
[18] = HEK293 Cytotoxicity Assay Measured in Cell-Based System Using Plate Reader - 7071-01_Inhibitor_Dose_CherryPick_Activity_Set2.; assay type: functional

Chain of E3 ubiquitin-protein ligase Mdm2 (Q00987 whole entry): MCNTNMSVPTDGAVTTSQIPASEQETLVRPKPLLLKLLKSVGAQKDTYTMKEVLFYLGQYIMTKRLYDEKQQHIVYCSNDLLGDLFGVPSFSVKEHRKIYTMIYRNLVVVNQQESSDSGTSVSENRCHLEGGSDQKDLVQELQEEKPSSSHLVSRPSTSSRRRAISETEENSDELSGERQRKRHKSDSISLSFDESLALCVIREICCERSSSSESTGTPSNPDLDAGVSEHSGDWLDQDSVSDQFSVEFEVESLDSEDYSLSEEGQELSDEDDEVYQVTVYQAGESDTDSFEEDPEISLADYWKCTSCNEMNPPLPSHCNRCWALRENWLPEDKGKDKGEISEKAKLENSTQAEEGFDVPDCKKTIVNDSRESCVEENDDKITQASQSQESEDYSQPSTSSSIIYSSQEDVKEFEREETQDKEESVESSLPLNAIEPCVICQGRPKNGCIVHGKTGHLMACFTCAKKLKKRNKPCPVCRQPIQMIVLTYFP
Chain of NAD-dependent protein deacylase sirtuin-5, mitochondrial (Q9NXA8 whole entry): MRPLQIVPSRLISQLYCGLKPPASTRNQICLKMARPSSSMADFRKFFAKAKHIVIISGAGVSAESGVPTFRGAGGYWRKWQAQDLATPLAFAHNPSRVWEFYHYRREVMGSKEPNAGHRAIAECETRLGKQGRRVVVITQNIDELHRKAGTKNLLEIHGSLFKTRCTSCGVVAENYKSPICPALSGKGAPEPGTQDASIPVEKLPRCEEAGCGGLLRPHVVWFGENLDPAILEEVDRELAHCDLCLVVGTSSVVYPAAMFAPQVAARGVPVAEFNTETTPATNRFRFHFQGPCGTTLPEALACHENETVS

Cc1ccc(CNC(=O)c2cc3c(C)nc4ccccc4c3o2)cc1
AC50 [1]: 2.49 µM (active)
AC50 [2]: 64.3 µM (active)
AC50 [3]: 12.2 µM (active)
AC50 [4]: 4.02 µM (active)

COc1ccc(NC(=O)c2ccc(-c3ccc([N+](=O)[O-])cc3)o2)cc1
IC50 [5]: > 100 µM (active)
AC50 [6]: > 52 µM (inactive)
AC50 [7]: > 52 µM (inactive)

O=[N+]([O-])c1ccc2oc(-c3cccc(O)c3)nc2c1
IC50 [8]: > 67.5 µM (inactive)
EC50 [9]: > 67.5 µM (inactive)
EC50 [10]: > 67.6 µM (inactive)
EC50 (cells [11]): > 67.6 µM (inactive)

CCC(C)(c1nnnn1-c1c(C)cccc1C)N(N=O)c1ccccc1Cl (centres undefined)
CC50 [12]: > 40 µM (active)

Cc1cc(C(=O)N2CCc3ccccc32)n(-c2ccccc2)n1
EC50 (Transthyretin): > 167 µM (inactive)

Cc1nc(-c2ccc(C(=O)Nc3ccc(F)cc3)cc2)cs1
AC50 [13]: 26 µM (active)

Cn1c2ccccc2c(=O)c2ccc(F)cc21
AC50 (cells [14]): 7.33 µM (active)
AC50 (cells [15]): > 52 µM (inactive)

COC(=O)Nc1ccc2c(c1)N(C(=O)CCCl)c1ccccc1S2
IC50 (NADPH oxidase 1): > 50 µM (not active)

Cc1cccc(NC(=O)c2c(O)c3cccc4c3n(c2=O)CCC4)n1
IC50 (Heat shock protein HSP90): > 50 µM

CCOC(=O)N1C/C(=C\c2ccccc2)C(=O)/C(=C/c2ccccc2)C1
EC50 [16]: 0.61 µM (active)
CC50 (Vero): 23 µM (active)

CCOc1ccc(CCN2C(=O)C(=O)N([C@@H](Cc3ccccc3)CN3CCC[C@@H]3CN3C(=O)C(=O)NC[C@@H]3Cc3ccc(O)cc3)C[C@@H]2Cc2ccccc2)cc1
AC50 [17]: > 30 µM (inactive)

COC(=O)C1=C(C)N(CC(C)C)C(=S)NC1c1ccc(F)cc1 (centres undefined)
AC50 (Cryptococcus neoformans): > 84 µM (inactive)
AC50 (HEK293): 40.3 µM (active)
AC50 [18]: 40.3 µM (active)
